Reference: patent US9725423B2, “Tetrazolinone compound and applications thereof” (SUMITOMO CHEMICAL COMPANY, LIMITED, priority 2012, dated 2017)

Columns and labels:
[1] = system: diamondback moth (Plutella xylostella); assay: Diamondback moth mortality test on sprayed cabbage (Test Example 15); format: in vivo; conditions: 120 h, 20 mL/cup sprayed on cabbage, second-instar larvae, 25° C., after 5 days
Description: Each of formulations of the present compounds 6, 9, 26, 28, 31, 32, 33, 36, 71, 109, 114, 115, 125, and 149 obtained in Formulation Example 6 was diluted with water so that the concentration of the active ingredient is controlled to 500 ppm to prepare a test spraying solution. Meanwhile, the above test chemical solution was sprayed over three-leaf stage cabbage sowed in a polyethylene cup in the proportion of 20 mL/cup. After drying the chemical solution, stem and leaf portions were cut off and put in a 50 mL cup and five second-instar larvae of diamondback moth (Plutella xylostella) were released, and then the cup was capped. The cup was stored at 25° C. and, after 5 days, the number of surviving worms was counted and mortality was determined by the following equation. Mortality (%)=[(Number of dead insects)/(Number of tested insects)]×100

[2] = system: cucumber powdery mildew fungus (Sphaerotheca fuliginea); assay: Cucumber powdery mildew control test, foliar spray on cucumber (Test Examples 6, 12, Comparative Test Example); format: in vivo; conditions: 200 ppm, cucumber (SAGAMI HANJIRO), 8 days after inoculation

SMILES | mortality at 500 ppm [1] [%] | area of lesion spots relative to that on an untreated plant [2] [%]
CC(=NOCc1c(C)cccc1-n1nnn(C)c1=O)c1cccc(OC(F)(F)F)c1 [present compound 32, 1-{3-methyl-2-[1-(3-trifluoromethoxyphenyl)ethylideneaminooxymethyl]phenyl}-4-methyl-1,4-dihydrotetrazol-5-one] | ≥ 80 | –
CC(=NOCc1c(C)cccc1-n1nnn(C)c1=O)c1cccc(C(F)(F)F)c1 [1-{3-methyl-2-[1-(3-trifluoromethylphenyl)ethylideneaminooxymethyl]phenyl}-4-methyl-1,4-dihydrotetrazol-5-one] | – | ≤ 30
CC(=NOCc1c(Cl)cccc1-n1nnn(C)c1=O)c1cccc(OC(F)(F)C(F)F)c1 [present compound 9, 1-(3-chloro-2-{1-[3-(1,1,2,2-tetrafluoroethoxyl)phenyl]ethylideneaminooxymethyl]phenyl}-4-methyl-1,4-dihydrotetrazol-5-one] | ≥ 80 | –
CC(=NOCc1c(C)cccc1-n1nnn(C)c1=O)c1cccc(C)c1 [present compound 71, 1-{3-methyl-2-[1-(3-methylphenyl)ethylideneaminooxymethyl]phenyl}-4-methyl-1,4-dihydrotetrazol-5-one] | ≥ 80 | –
CC(=NOCc1c(-n2nnn(C)c2=O)cccc1C(F)(F)F)c1cccc(OC(F)(F)F)c1 [present compound 114, 1-{2-[1-(3-trifluoromethoxyphenyl)ethylideneaminooxymethyl]-3-trifluoromethylphenyl}-4-methyl-1,4-dihydrotetrazol-5-one] | ≥ 80 | –
CC(=NOCc1c(C)cccc1-n1nnn(C)c1=O)c1ccccc1 [present compound 149, 1-[2-(1-phenylethylideneaminooxymethyl)-3-methylphenyl]-4-methyl-1,4-dihydrotetrazol-5-one] | ≥ 80 | –
CC(=NOCc1c(C2CC2)cccc1-n1nnn(C)c1=O)c1cccc2c1CCC2 [present compound 125, 1-[3-cyclopropyl-2-(1-indan-4-ylethylideneaminooxymethyl)phenyl]-4-methyl-1,4-dihydrotetrazol-5-one] | ≥ 80 | –
CC(=NOCc1c(C)cccc1-n1nnn(C)c1=O)c1ccc2ccccc2c1 [present compound 36, 1-[3-methyl-2-(1-naphthalen-2-ylethylideneaminooxymethyl)phenyl]-4-methyl-1,4-dihydrotetrazol-5-one] | ≥ 80 | –
CC(=NOCc1c(C)cccc1-n1nnn(C)c1=O)c1cccc(N(C)C)c1 [present compound 109, 1-{2-[1-(3-dimethylaminophenyl)ethylideneaminooxymethyl]-3-methylphenyl}-4-methyl-1,4-dihydrotetrazol-5-one] | ≥ 80 | –
CC(=NOCc1c(C)cccc1-n1nnn(C)c1=O)c1cccc(Cl)c1 [present compound 31, 1-{3-methyl-2-[1-(3-chlorophenyl)ethylideneaminooxymethyl]phenyl}-4-methyl-1,4-dihydrotetrazol-5-one] | ≥ 80 | –
CC(=NOCc1c(Cl)cccc1-n1nnn(C)c1=O)c1cc(F)cc(F)c1 [present compound 28, 1-{3-chloro-2-[1-(3,5-difluorophenyl)ethylideneaminooxymethyl]phenyl}-4-methyl-1,4-dihydrotetrazol-5-one] | ≥ 80 | –
CC(=NOCc1c(-n2nnn(C)c2=O)cccc1C(F)(F)F)c1ccc2c(c1)CCC2 [present compound 115, 1-[2-(1-indan-5-ylethylideneaminooxymethyl)-3-trifluoromethylphenyl]-4-methyl-1,4-dihydrotetrazol-5-one] | ≥ 80 | –
CC(=NOCc1c(Cl)cccc1-n1nnn(C)c1=O)c1cccc([N+](=O)[O-])c1 [present compound 6, 1-{3-chloro-2-[1-(3-nitrophenyl)ethylideneaminooxymethyl]phenyl}-4-methyl-1,4-dihydrotetrazol-5-one] | ≥ 80 | –
CC(=NOCc1c(C)cccc1-n1nnn(C)c1=O)c1cccc(OC(F)(F)C(F)F)c1 [present compound 33, 1-(3-methyl-2-{1-[3-(1,1,2,2-tetrafluoroethoxyl)phenyl]ethylideneaminooxymethyl}phenyl)-4-methyl-1,4-dihydrotetrazol-5-one] | ≥ 80 | –
CC(=NOCc1cccc(C)c1-n1nnn(C)c1=O)c1cccc(C(F)(F)F)c1 [1-methyl-4-{2-methyl-6-[1-(3-trifluoromethylphenyl)ethylideneaminooxymethyl]phenyl}-1,4-dihydrotetrazol-5-one] | – | ≥ 70
Cn1nnn(-c2cccc(Cl)c2CON=C(c2ccccc2)C(F)(F)F)c1=O [present compound 26, 1-[3-chloro-2-(2,2,2-trifluoro-1-phenylethylideneaminooxymethyl)phenyl]-4-methyl-1,4-dihydrotetrazol-5-one] | ≥ 80 | –
